Measured values published in publication PMC3116189, “Novel Natural Inhibitors of CYP1A2 Identified by in Silico and in Vitro Screening” (International Journal of Molecular Sciences, 2011).
“Also recorded” adds a separate entry of the source. Counter-ions that a name gives are not always drawn.

Biological target: T1, CYP1A2 (Homo sapiens, UniProt P05177)
T1 sequence (P05177 1-516): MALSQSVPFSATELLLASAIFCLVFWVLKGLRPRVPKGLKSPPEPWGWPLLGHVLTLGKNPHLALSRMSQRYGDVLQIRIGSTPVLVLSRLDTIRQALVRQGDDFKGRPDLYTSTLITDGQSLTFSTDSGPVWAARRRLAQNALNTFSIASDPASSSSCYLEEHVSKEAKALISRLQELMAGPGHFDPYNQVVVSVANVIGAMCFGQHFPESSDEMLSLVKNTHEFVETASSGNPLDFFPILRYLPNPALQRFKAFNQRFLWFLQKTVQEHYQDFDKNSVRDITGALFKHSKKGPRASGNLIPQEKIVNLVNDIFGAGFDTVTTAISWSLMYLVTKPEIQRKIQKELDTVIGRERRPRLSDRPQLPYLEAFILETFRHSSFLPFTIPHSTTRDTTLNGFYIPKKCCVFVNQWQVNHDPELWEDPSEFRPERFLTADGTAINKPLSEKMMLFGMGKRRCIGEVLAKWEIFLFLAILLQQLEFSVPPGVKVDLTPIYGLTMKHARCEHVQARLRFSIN
Assay: in vitro
Assay type: biochemical
Conditions: 1 μM active ingredient, Rh CYP1A2-mediated phenacetin O-deethylation, test dataset of 202 herb ingredients
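Also: recombinant CYP1A2 incubated for 1 h at 37 °C, with the reaction started by an NADPH-generating system.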
Protocol: A total of 18 candidate compounds selected by pharmacophore and docking were examined for their potential to inhibit rhCYP1A2 phenacetin O-deethylation activity at a test concentration of 1 μM.
The basic incubation medium contained 100 mM potassium phosphate buffer (PH 7.4), 50 pmol recombinant human CYP1A2, 25 μM phenacetin and 1 μM active ingredients. The final incubation volume was 200 μL. After 5 min pre-incubation at 37 °C, the reaction was initiated by the addition of NADPH-generating system (5 mM MgCl2, 10 mM glucose 6-phosphates, 1 mM NADPH, and 2.5 U per mL glucose 6-phosphate dehydrogenase). Incubations were performed in a 37 °C shaking water bath for 1 h. Reactions were stopped by adding 0.4 mL of ice-cold acetonitrile containing 0.2 mg/L tinidazole (IS). […] The column was maintained at 35 °C and the injection volume was 10 μL.

Row | Structure (SMILES) | % of Control Indication Activity (Mean) [%]
1 | C/C=C(/C)C(=O)O[C@H]1[C@@H](OC(C)=O)c2c(ccc3ccc(=O)oc23)OC1(C)C [Praeruptorin A] | > 90
2 | Cc1c(O)c(C)c2oc(-c3ccc(O)cc3)cc(=O)c2c1O [Syzalterin] | > 90
3 | COc1cc(-c2oc3cc(O)cc(O)c3c(=O)c2O[C@@H]2O[C@H](CO[C@@H]3O[C@@H](C)[C@H](O)[C@@H](O)[C@H]3O)[C@@H](O)[C@H](O)[C@H]2O[C@@H]2O[C@@H](C)[C@H](O)[C@@H](O)[C@H]2O)ccc1O [Typhaneoside] | > 90
4 | COc1ccc(-c2oc3cc(OC)c(OC)c(O)c3c(=O)c2OC)cc1O [Vitexicarpin] | > 90
5 | C[C@@H]1O[C@@H](O[C@@H]2[C@@H](O)[C@H](O)[C@@H](CO)O[C@H]2c2c(O)cc(O)c3c(=O)cc(-c4ccc(O)cc4)oc23)[C@H](O)[C@H](O)[C@H]1O [Vitexin rhamnoside] | > 90

Same assay, conditions: 1 μM test compound, 25 μM phenacetin, average of duplicate determinations

Row | Structure (SMILES) | % of Control Indication Activity [%]
6 | OC[C@H]1O[C@@H](Oc2cc(O)cc(/C=C/c3ccc(O)cc3)c2)[C@H](O)[C@@H](O)[C@@H]1O [zhang 713, Piceid] | >90

Same assay, conditions: 1 μM test concentration

Row | Structure (SMILES) | inhibitory activity to CYP1A2 (10% or greater inhibition at 1 μM)
7 | O=c1ccc2ccc(Oc3cc4cc(O)c(O)cc4oc3=O)cc2o1 [zhang 300, Edgeworthin] | found to have inhibition of CYP1A2 activity; also recorded: confirmed to have inhibitory activities to CYP1A2

Same assay, conditions: 1 μM test concentration; listed as 284

Row | Structure (SMILES) | inhibitory activity to CYP1A2 (10% or greater inhibition at 1 μM)
8 | COc1cc(C[C@H]2COC(=O)[C@@H]2Cc2ccc(O)c(OC)c2)ccc1O [zhang 284, (−)-Matairesinol] | found to have inhibition of CYP1A2 activity; also recorded: confirmed to have inhibitory activities to CYP1A2

Same assay, conditions: 1 μM test concentration; listed as 616

Row | Structure (SMILES) | inhibitory activity to CYP1A2 (10% or greater inhibition at 1 μM)
9 | COc1cc(C[C@H]2COC(=O)[C@@H]2Cc2ccc(O)c(OC)c2)ccc1O [zhang 616, (+)-Matairesinol] | found to have inhibition of CYP1A2 activity; also recorded: confirmed to have inhibitory activities to CYP1A2

Same assay, conditions: human, recombinant enzyme, pH 7.4

Row | Structure (SMILES) | activity at 1 h, 1 μM [%]
10 | CN1CCc2cc3c(cc2C(=O)Cc2ccc4c(c2C1)OCO4)OCO3 [Protopine] | > 90
11 | O=c1c(-c2ccc(O)cc2)coc2c([C@@H]3O[C@H](CO)[C@@H](O)[C@H](O)[C@H]3O)c(O)ccc12 [Puerarin] | > 90
12 | C[C@@H]1O[C@@H](Oc2cc(O)c3c(=O)c(O)c(-c4ccc(O)cc4)oc3c2O)[C@H](O)[C@H](O)[C@H]1O [Rhodionin] | > 90
13 | O=c1c2ccccc2nc2n1CCc1c-2[nH]c2ccccc12 [Rutaecarpine] | > 90
14 | C[C@@H]1O[C@@H](OC[C@H]2O[C@@H](Oc3c(-c4ccc(O)c(O)c4)oc4cc(O)cc(O)c4c3=O)[C@H](O)[C@@H](O)[C@@H]2O)[C@H](O)[C@H](O)[C@H]1O [Rutin] | > 90
15 | C[C@H]1O[C@@H](O[C@H]2CC[C@@]3(C)[C@@H](CC[C@]4(C)[C@@H]3C=C[C@]35OC[C@@]6(CCC(C)(C)C[C@H]63)[C@@H](O)C[C@]54C)[C@]2(C)CO)[C@H](O)[C@@H](O[C@@H]2O[C@H](CO)[C@@H](O)[C@H](O)[C@H]2O)[C@H]1O [Saikosaponin A] | > 90
16 | OC[C@H]1O[C@@H](OCCc2ccc(O)cc2)[C@H](O)[C@@H](O)[C@@H]1O [Salidroside] | > 90
17 | COc1cc(C2Oc3cc([C@H]4Oc5cc(O)cc(O)c5C(=O)[C@@H]4O)ccc3OC2CO)ccc1O (stereo partly shown) [Silibinin] | > 90
18 | CNCC(O)c1ccc(O)cc1 (stereo not shown) [Synephrine] | > 90
19 | COc1cc(/C=C/CO)cc(OC)c1O[C@@H]1O[C@H](CO)[C@@H](O)[C@H](O)[C@H]1O [Syringin] | > 90
20 | COc1ccc2cc1Oc1ccc(cc1)C[C@H]1c3cc(c(OC)cc3CCN1C)Oc1c(OC)c(OC)cc3c1[C@H](C2)N(C)CC3 [Tetrandrine] | > 90
21 | COc1cc(C(=O)O)ccc1O [Vanillic acid] | > 90
22 | COc1cc(O)c2c(=O)cc(-c3ccc(O)c(O)c3)oc2c1 [zhang 272, 3′-hydroxy-Genkwanin] | < 90

Same assay, conditions: human, recombinant human CYP1A2, pH 7.4, probe phenacetin (25 μM), O-deethylation to acetaminophen; 1 μM active ingredient, Rh CYP1A2-mediated phenacetin O-deethylation, test dataset of 202 herb ingredients; read-out: % of Control Indication Activity (Mean)

Row | Structure (SMILES) | activity at 1 h, 1 μM [%]
23 | OC[C@H]1O[C@@H](Oc2cc(O)cc(/C=C/c3ccc(O)cc3)c2)[C@H](O)[C@@H](O)[C@@H]1O [Polydatin] | > 90
24 | O=C(O)c1ccc(O)c(O)c1 [Protocatechuic acid] | > 90
25 | COC(=O)C1=CC[C@@]23CC[C@@H]([C@@](C)(/C=C/C=C(\C)C(=O)O)OC2=O)[C@@]3(OC(C)=O)CC1 [Pseudolaric acid B] | > 90
26 | CC(C)=C1CC[C@@H](C)CC1=O [Pulegone] | > 90
27 | O=c1c(O)c(-c2ccc(O)c(O)c2)oc2cc(O)cc(O)c12 [Quercetin] | > 90
28 | O=C(O)c1cc(O)c2c(c1)C(=O)c1cccc(O)c1C2=O [Rhein] | > 90
29 | COc1cc2c(c(OC)c1OC)-c1c(cc(OC)c(OC)c1OC)C[C@](C)(O)[C@@H](C)C2 [Schizandrin] | > 90
30 | COc1cc2ccc(=O)oc2cc1O [Scopoletin] | > 90
31 | O=C(O)[C@H]1O[C@@H](Oc2cc3oc(-c4ccc(O)cc4)cc(=O)c3c(O)c2O)[C@H](O)[C@@H](O)[C@@H]1O [Scutellarin] | > 90
32 | O=c1c(-c2ccc(O[C@@H]3O[C@H](CO)[C@@H](O)[C@H](O)[C@H]3O)cc2)coc2cc(O)cc(O)c12 [Sophoricoside] | > 90
33 | Cc1coc2c1C(=O)C(=O)c1c-2ccc2c1CCCC2(C)C [Tanshinone IIA] | 28.3
34 | COc1c(O[C@@H]2O[C@H](CO)[C@@H](O)[C@H](O)[C@H]2O)cc2occ(-c3ccc(O)cc3)c(=O)c2c1O [Tectoridin] | > 90
35 | COc1cc2c(cc1OC)[C@@H]1Cc3ccc(OC)c(OC)c3CN1CC2 [Tetrahydropalmatine] | > 90
36 | Cc1ccc(C(C)C)c(O)c1 [Thymol] | > 90
37 | O=c1cc(-c2ccc(O)cc2)oc2c([C@@H]3O[C@H](CO)[C@@H](O)[C@H](O)[C@H]3O)c(O)cc(O)c12 [Vitexin] | > 90
38 | COc1c(O)cc(O)c2c(=O)cc(-c3ccccc3)oc12 [Wogonin] | 74.6

Same assay, conditions: human, recombinant human CYP1A2, pH 7.4, probe phenacetin (25 μM), O-deethylation to acetaminophen; 1 μM test compound, 25 μM phenacetin, average of duplicate determinations; read-out: % of Control Indication Activity

Row | Structure (SMILES) | activity at 1 h, 1 μM [%]
39 | COc1cc(O)c2c(=O)c(O[C@@H]3O[C@H](CO)[C@H](O)[C@H](O)[C@H]3O)c(-c3ccc(O)c(O)c3)oc2c1 [zhang 83, rhamnetin 3-O-β-D-galactopyranoside] | > 90
40 | COc1cc(O)c2c(=O)c(O[C@@H]3O[C@H](CO)[C@@H](O)[C@H](O)[C@H]3O)c(-c3ccc(O)c(O)c3)oc2c1 [zhang 84, rhamnetin 3-O-β-D-glucopyranoside] | > 90
41 | CC(C)=CCC/C(C)=C/Cc1c(O)cc(O)c2c(=O)c3c(O)c4c(cc3oc12)OCO4 [zhang 89, 1,6,8-trihydroxy-2,3-methylenedioxy-5-geranylxanthone] | > 90
42 | O=c1c(O[C@@H]2OC[C@@H](O)[C@@H](O)[C@@H]2O)c(-c2ccc(O)c(O)c2)oc2cc(O)cc(O)c12 [zhang 205, quercetin-3-O-β-D-arabinopyranoside] | > 90
43 | O=c1c(OC2OC(CO)C(O)C2O)c(-c2ccc(O)c(O)c2)oc2cc(O)cc(O)c12 [zhang 206, quercetin-3-O-α-D-arabinofuranose] | > 90
44 | COc1cc(C2Oc3c(ccc4ccc(=O)oc34)O[C@H]2CO)ccc1O (stereo partly shown) [zhang 271, 5′-demethoxy Daphneticin] | > 90
45 | COc1cc(C[C@H]2COC(=O)[C@@H]2Cc2ccc(O)c(OC)c2)ccc1O [zhang 284, (−)-Matairesinol] | < 90
46 | O=c1ccc2ccc(Oc3cc4cc(O)c(O)cc4oc3=O)cc2o1 [zhang 300, Edgeworthin] | < 90

Same assay, conditions: recombinant enzyme

Row | Structure (SMILES) | % of Control Indication Activity (Mean)
47 | COc1cc(/C=C/C(=O)OCC[N+](C)(C)C)cc(OC)c1O [Sinapine] | > 90

Same assay, conditions: recombinant enzyme, pH 7.4

Row | Structure (SMILES) | activity [%]
48 | CN1[C@@H]2C[C@@H](OC(=O)[C@H](CO)c3ccccc3)C[C@H]1[C@@H]1O[C@@H]12 [Scopolamine Hydrobromide] | > 90
49 | COC1=C[C@@H]2[C@@H]3Cc4ccc(OC)c(O)c4[C@]2(CCN3C)CC1=O [Sinomenine] | > 90

Same assay, conditions: recombinant enzyme, pH 7.4; 1 μM active ingredient, Rh CYP1A2-mediated phenacetin O-deethylation, test dataset of 202 herb ingredients; read-out: % of Control Indication Activity (Mean)

Row | Structure (SMILES) | activity at 1 h, 1 μM [%] | activity [%]
50 | O=c1ccc2cc3ccoc3cc2o1 [Psoralen] | 10.8 | 
51 | C[C@@H]1O[C@@H](Oc2c(-c3ccc(O)c(O)c3)oc3cc(O)cc(O)c3c2=O)[C@H](O)[C@H](O)[C@H]1O [Quercitrin] |  | > 90
52 | C[C@]12CC[C@H](O)C[C@H]1CC[C@@H]1[C@@H]2CC[C@]2(C)[C@@H](c3ccc(=O)oc3)C[C@H]3O[C@]132 [Resibufogenin] | > 90 | 
53 | C[C@H]1CC[C@@]2(OC1)O[C@H]1C[C@H]3[C@@H]4CC[C@@H]5C[C@@H](O)CC[C@]5(C)[C@H]4CC[C@]3(C)[C@H]1[C@@H]2C [Sarsasapogenin] |  | > 90
54 | c1cc2c(cc1[C@H]1OC[C@H]3[C@@H]1CO[C@@H]3c1ccc3c(c1)OCO3)OCO2 [Sesamin] |  | > 90
55 | O=C1C[C@@H]2OCC=C3CN4CC[C@]56c7ccccc7N1[C@H]5[C@H]2[C@H]3C[C@H]46 [Strychnine] | > 90 | 
